Here are results for 17 compounds from patent US9359358B2, “Cyclohexyl azetidine derivatives as JAK inhibitors” (Incyte Holdings Corporation, priority 2011, dated 2016).

The target of one test is T1, human JAK1 (Homo sapiens, UniProt P23458).
T1 construct: human JAK1 (a.a. 837-1142); His tag (N); made in house; host or cells: insect cells (baculovirus)
The test can be described thus: In Vitro JAK Kinase Assay (HTRF, phosphorylation of a biotinylated peptide), JAK1. Format: biochemical. To be noted: catalytic domain a.a. 837-1142, assay of Example A. The protocol: (§1) The catalytic activity of JAK1, JAK2 or JAK3 was assayed by measuring the phosphorylation of a biotinylated peptide. The phosphorylated peptide was detected by homogenous time resolved fluorescence (HTRF). […] Reactions were carried out at room temperature for 1 hour and then stopped with 20 μL 45 mM EDTA, 300 nM SA-APC, 6 nM Eu-Py20 in assay buffer (Perkin Elmer, Boston, Mass.). Binding to the Europium labeled antibody took place for 40 minutes and HTRF signal was measured on a Fusion plate reader (Perkin Elmer, Boston, Mass.).
(In general: Time-resolved FRET reads energy transfer from a long-lived donor to a nearby acceptor.)

The target of the next test is T2, human JAK2 (Homo sapiens, UniProt O60674).
T2 construct: JAK2 (a.a. 828-1132); His tag (N); made in house; host or cells: insect cells (baculovirus)
T2 sequence (O60674 828-1132): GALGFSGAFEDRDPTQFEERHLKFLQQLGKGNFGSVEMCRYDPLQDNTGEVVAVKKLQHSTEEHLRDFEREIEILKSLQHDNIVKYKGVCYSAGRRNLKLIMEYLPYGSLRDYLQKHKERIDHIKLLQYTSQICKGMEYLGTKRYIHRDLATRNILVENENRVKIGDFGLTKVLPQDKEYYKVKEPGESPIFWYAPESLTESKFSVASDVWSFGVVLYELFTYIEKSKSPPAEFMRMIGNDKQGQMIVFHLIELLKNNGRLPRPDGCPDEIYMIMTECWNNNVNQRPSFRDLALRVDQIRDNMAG
The test can be described thus: In Vitro JAK Kinase Assay (HTRF, phosphorylation of a biotinylated peptide), JAK2. Format: biochemical. The note with it: assay of Example A. The protocol:
as §1

Where a name gives a salt, the structure may show the parent alone.

T1 sequence (P23458 849-1154): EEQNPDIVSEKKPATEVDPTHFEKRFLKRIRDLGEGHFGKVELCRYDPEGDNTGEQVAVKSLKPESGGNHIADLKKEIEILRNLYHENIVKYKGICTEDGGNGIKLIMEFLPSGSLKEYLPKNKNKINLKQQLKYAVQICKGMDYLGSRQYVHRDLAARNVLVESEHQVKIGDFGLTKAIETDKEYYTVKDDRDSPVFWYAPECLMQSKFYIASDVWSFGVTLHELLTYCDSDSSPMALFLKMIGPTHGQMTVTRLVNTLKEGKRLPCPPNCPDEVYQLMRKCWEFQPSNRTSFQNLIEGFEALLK

The term IC50 denotes the midpoint of a concentration-inhibition curve. `N#CCC1(n2cc(-c3ncnc4[nH]ccc34)cn2)CN([C@H]2CC[C@@H](Oc3cc(CNC[C@@H]4CCCO4)nc(C(F)(F)F)n3)CC2)C1` [Example 27, [3-[4-(7H-pyrrolo[2,3-d]pyrimidin-4-yl)-1H-pyrazol-1-yl]-1-(cis-4-{[6-({[(2S)-tetrahydrofuran-2-ylmethyl]amino}methyl)-2-(trifluoromethyl)pyrimidin-4-yl]oxy}cyclohexyl)azetidin-3-yl]acetonitrile tris(trifluoroacetate)] yielded an IC50 at human JAK1 (Table 4) below 10 nM. Besides, the “JAK2/JAK1 IC50 ratio” value at human JAK2 (Table 4) was “≧10”.

On human JAK1 (Table 5), `CNC(=O)c1cc(O[C@H]2CC[C@@H](N3CC(CC#N)(n4cc(-c5ncnc6[nH]ccc56)cn4)C3)CC2)nc(C(F)(F)F)c1` [Example 80, 2-[(cis-4-{3-(cyanomethyl)-3-[4-(7H-pyrrolo[2,3-d]pyrimidin-4-yl)-1H-pyrazol-1-yl]azetidin-1-yl}cyclohexyl)oxy]-N-methyl-6-(trifluoromethyl)isonicotinamide bis(trifluoroacetate)] came in with an IC50 below 10 nM. Besides, on human JAK2 (Table 5), the “JAK2/JAK1 IC50 ratio” value is “≧10”.

Take `C[C@@H](CO)NCc1cc(O[C@H]2CC[C@@H](N3CC(CC#N)(n4cc(-c5ncnc6[nH]ccc56)cn4)C3)CC2)nc(C(F)(F)F)c1` [Example 73, {1-(cis-4-{[4-({[(1S)-2-hydroxy-1-methylethyl]amino}methyl)-6-(trifluoromethyl)pyridin-2-yl]oxy}cyclohexyl)-3-[4-(7H-pyrrolo[2,3-d]pyrimidin-4-yl)-1H-pyrazol-1-yl]azetidin-3-yl}acetonitrile tris(trifluoroacetate)]: at human JAK1 (Table 5), the IC50 is below 10 nM. Besides, the “JAK2/JAK1 IC50 ratio” value at human JAK2 (Table 5) is recorded as “≧10”.

`CC(CO)c1cc(OC2CCC(N3CC(CC#N)(n4cc(-c5ncnc6[nH]ccc56)cn4)C3)CC2)nc(C(F)(F)F)n1` (single isomer, unassigned) [Example 59, {1-(cis-4-{[6-(2-hydroxy-1-methylethyl)-2-(trifluoromethyl)pyrimidin-4-yl]oxy}cyclohexyl)-3-[4-(7H-pyrrolo[2,3-d]pyrimidin-4-yl)-1H-pyrazol-1-yl]azetidin-3-yl}acetonitrile bis(trifluoroacetate) (salt)] displayed an IC50 at human JAK1 (Table 4) below 10 nM. Besides, the “JAK2/JAK1 IC50 ratio” value on human JAK2 (Table 4) is “≧10”.

With `N#CCC1(n2cc(-c3ncnc4[nH]ccc34)cn2)CN([C@H]2CC[C@@H](Oc3cc(CN4CCC4)nc(C(F)(F)F)n3)CC2)C1` [Example 23, {1-(cis-4-{[6-(azetidin-1-ylmethyl)-2-(trifluoromethyl)pyrimidin-4-yl]oxy}cyclohexyl)-3-[4-(7H-pyrrolo[2,3-d]pyrimidin-4-yl)-1H-pyrazol-1-yl]azetidin-3-yl}acetonitrile tris(trifluoroacetate)], on human JAK1 (Table 4), the IC50 is below 10 nM. Further, on human JAK2 (Table 4), the “JAK2/JAK1 IC50 ratio” value is given as “≧10”.

With `CC(C)(CO)c1cc(O[C@H]2CC[C@@H](N3CC(CC#N)(n4cc(-c5ncnc6[nH]ccc56)cn4)C3)CC2)nc(C(F)(F)F)n1` [Example 62, {1-(cis-4-{[6-(2-hydroxy-1,1-dimethylethyl)-2-(trifluoromethyl)pyrimidin-4-yl]oxy}cyclohexyl)-3-[4-(7H-pyrrolo[2,3-d]pyrimidin-4-yl)-1H-pyrazol-1-yl]azetidin-3-yl}acetonitrile tris(trifluoroacetate) (salt)], at human JAK1 (Table 4), the IC50 is below 10 nM. Moreover, at human JAK2 (Table 4), the “JAK2/JAK1 IC50 ratio” value is “≧10”.

Take `C[C@H](CO)NCc1cc(O[C@H]2CC[C@@H](N3CC(CC#N)(n4cc(-c5ncnc6[nH]ccc56)cn4)C3)CC2)nc(C(F)(F)F)c1` [Example 75, {1-(cis-4-{[4-({[(1R)-2-hydroxy-1-methylethyl]amino}methyl)-6-(trifluoromethyl)pyridin-2-yl]oxy}cyclohexyl)-3-[4-(7H-pyrrolo[2,3-d]pyrimidin-4-yl)-1H-pyrazol-1-yl]azetidin-3-yl}acetonitrile tris(trifluoroacetate)]: at human JAK1 (Table 5), the IC50 was below 10 nM. On human JAK2 (Table 5), the “JAK2/JAK1 IC50 ratio” value is given as “≧10”.

In turn, `N#CCC1(n2cc(-c3ncnc4[nH]ccc34)cn2)CN([C@H]2CC[C@@H](Oc3cc(C(=O)N4CCCC4)nc(C(F)(F)F)n3)CC2)C1` [Example 51, {1-(cis-4-{[6-(pyrrolidin-1-ylcarbonyl)-2-(trifluoromethyl)pyrimidin-4-yl]oxy}cyclohexyl)-3-[4-(7H-pyrrolo[2,3-d]pyrimidin-4-yl)-1H-pyrazol-1-yl]azetidin-3-yl}acetonitrile bis(trifluoroacetate)] gave an IC50 against human JAK1 (Table 4) below 10 nM. For the same compound, on human JAK2 (Table 4), the “JAK2/JAK1 IC50 ratio” value was “≧10”.

“2-(1-(cis-4-((6-(((2-(1H-imidazol-4- yl)ethyl)amino)methyl)-2- (trifluoromethyl)pyrimidin-4- yl)oxy)cyclohexyl)-3-(4-(7H-pyrrolo[2,3- d]pyrimidin-4-yl)-1H-pyrazol-1- yl)azetidin-3-yl)acetonitrile tris(trifluoroacetate) (salt) [Example 39]” showed an IC50 against human JAK1 (Table 4) below 10 nM. Moreover, at human JAK2 (Table 4), the “JAK2/JAK1 IC50 ratio” value was “≧10”.

`N#CCC1(n2cc(-c3ncnc4[nH]ccc34)cn2)CN([C@H]2CC[C@@H](Oc3cc(CNC4CC4)cc(C(F)(F)F)n3)CC2)C1` [Example 72, {1-(cis-4-{[4-[(cyclopropylamino)methyl]-6-(trifluoromethyl)pyridin-2-yl]oxy}cyclohexyl)-3-[4-(7H-pyrrolo[2,3-d]pyrimidin-4-yl)-1H-pyrazol-1-yl]azetidin-3-yl}acetonitrile tris(trifluoroacetate)] displayed an IC50 against human JAK1 (Table 5) below 20 nM. Also, the “JAK2/JAK1 IC50 ratio” value on human JAK2 (Table 5) was “≧10”.

Take `N#CCC1(n2cc(-c3ncnc4[nH]ccc34)cn2)CN([C@H]2CC[C@@H](Oc3cc(CCO)nc(C(F)(F)F)n3)CC2)C1` [Example 45, {1-(cis-4-{[6-(2-hydroxyethyl)-2-(trifluoromethyl)pyrimidin-4-yl]oxy}cyclohexyl)-3-[4-(7H-pyrrolo[2,3-d]pyrimidin-4-yl)-1H-pyrazol-1-yl]azetidin-3-yl}acetonitrile tris(trifluoroacetate)]: the IC50 against human JAK1 (Table 4) was below 10 nM. Also, at human JAK2 (Table 4), the “JAK2/JAK1 IC50 ratio” value is “≧10”.

In turn, `N#CCC1(n2cc(-c3ncnc4[nH]ccc34)cn2)CN([C@H]2CC[C@@H](Oc3cc(CNC4CCC4)nc(C(F)(F)F)n3)CC2)C1.O=C(O)C(F)(F)F.O=C(O)C(F)(F)F.O=C(O)C(F)(F)F` [Example 10, {1-(cis-4-{[6-[(cyclobutylamino)methyl]-2-(trifluoromethyl)pyrimidin-4-yl]oxy}cyclohexyl)-3-[4-(7H-pyrrolo[2,3-d]pyrimidin-4-yl)-1H-pyrazol-1-yl]azetidin-3-yl}acetonitrile tris(trifluoroacetate)] returned an IC50 against human JAK1 (Table 4) below 10 nM. In addition, the “JAK2/JAK1 IC50 ratio” value at human JAK2 (Table 4) is “≧10”.

In the case of `N#CCC1(n2cc(-c3ncnc4[nH]ccc34)cn2)CN([C@H]2CC[C@@H](Oc3cc(CN)nc(C(F)(F)F)n3)CC2)C1` [Example 3, {1-(cis-4-{[6-(Aminomethyl)-2-(trifluoromethyl)pyrimidin-4-yl]oxy}cyclohexyl)-3-[4-(7H-pyrrolo[2,3-d]pyrimidin-4-yl)-1H-pyrazol-1-yl]azetidin-3-yl}acetonitrile tetrakis(trifluoroacetate)], the IC50 at human JAK1 (Table 4) is below 10 nM. The “JAK2/JAK1 IC50 ratio” value on human JAK2 (Table 4) is reported as “≧10”.

At human JAK1 (Table 4), `C[C@@H](O)CNCc1cc(O[C@H]2CC[C@@H](N3CC(CC#N)(n4cc(-c5ncnc6[nH]ccc56)cn4)C3)CC2)nc(C(F)(F)F)n1` [Example 18, {1-(cis-4-{[6-({[(2S)-2-hydroxypropyl]amino}methyl)-2-(trifluoromethyl)pyrimidin-4-yl]oxy}cyclohexyl)-3-[4-(7H-pyrrolo[2,3-d]pyrimidin-4-yl)-1H-pyrazol-1-yl]azetidin-3-yl}acetonitrile tris(trifluoroacetate) (salt)] showed an IC50 below 10 nM. Further, the “JAK2/JAK1 IC50 ratio” value on human JAK2 (Table 4) is “≧10”.

`COCC(C)NCc1cc(O[C@H]2CC[C@@H](N3CC(CC#N)(n4cc(-c5ncnc6[nH]ccc56)cn4)C3)CC2)nc(C(F)(F)F)n1` (stereo partly drawn) [Example 41, {1-(cis-4-{[6-{[(2-methoxy-1-methylethyl)amino]methyl}-2-(trifluoromethyl)pyrimidin-4-yl]oxy}cyclohexyl)-3-[4-(7H-pyrrolo[2,3-d]pyrimidin-4-yl)-1H-pyrazol-1-yl]azetidin-3-yl}acetonitrile tris(trifluoroacetate)] registered an IC50 on human JAK1 (Table 4) below 10 nM. Besides, at human JAK2 (Table 4), the “JAK2/JAK1 IC50 ratio” value is on record as “≧10”.

The compound `CN(C)Cc1cc(O[C@H]2CC[C@@H](N3CC(CC#N)(n4cc(-c5ncnc6[nH]ccc56)cn4)C3)CC2)nc(C(F)(F)F)c1` [Example 68, {1-(cis-4-{[4-[(dimethylamino)methyl]-6-(trifluoromethyl)pyridin-2-yl]oxy}cyclohexyl)-3-[4-(7H-pyrrolo[2,3-d]pyrimidin-4-yl)-1H-pyrazol-1-yl]azetidin-3-yl}acetonitrile tris(trifluoroacetate)] registered an IC50 on human JAK1 (Table 5) below 10 nM. Further, at human JAK2 (Table 5), the “JAK2/JAK1 IC50 ratio” value is listed as “≧10”.

On human JAK1 (Table 4), `N#CCC1(n2cc(-c3ncnc4[nH]ccc34)cn2)CN([C@H]2CC[C@@H](Oc3cc(CNC4CC4)nc(C(F)(F)F)n3)CC2)C1.O=C(O)C(F)(F)F.O=C(O)C(F)(F)F.O=C(O)C(F)(F)F` [Example 7, {1-(cis-4-{[6-[(cyclopropylamino)methyl]-2-(trifluoromethyl)pyrimidin-4-yl]oxy}cyclohexyl)-3-[4-(7H-pyrrolo[2,3-d]pyrimidin-4-yl)-1H-pyrazol-1-yl]azetidin-3-yl}acetonitrile tris(trifluoroacetate)] came in with an IC50 below 10 nM. Also, the “JAK2/JAK1 IC50 ratio” value at human JAK2 (Table 4) was “≧10”.
